Consider twelve compounds from US20250376483A1, “PRODRUGS OF PAN-KRAS INHIBITORS” (Mirati Therapeutics, Inc., priority 2022, published 2025).

Molecules are shown by their SMILES.

Series [1] in a line: Whole Blood Stability Assay (mouse whole blood). In kind it is in vitro ADME. As to conditions: CD-1 mouse blood, EDTA-K2, final conc. 2 μM, 37° C., 0-120 min; for half-life at 2 μM: male, fresh whole blood, read-out: Mouse Whole Blood Stability t1/2. As for the experimental part:
Whole Blood Stability Assay
This Example illustrates that exemplary compounds of the present invention is cleavage in mouse whole blood.
(§1) Test Compounds and Stock Solutions: Stock Conc. 10 mM; Final Conc. 2 μM
(§2) Test Compound and Control Working Solution Preparation:
• Intermediate solution: 5 μL of compound stock solution (10 mM in dimethyl sulfoxide (DMSO)) were diluted with […] of DMSO (intermediate solution concentration: 1 mM, 100% DMSO) • Propantheline bromide (control) intermediate solution: 5 μL of propantheline stock solution (10 mM in ultra-pure water) were diluted with 45 μL of ultra-pure water (intermediate solution concentration: 1 mM) • Working solution 1: 20 μL of test compound intermediate solution (1 mM) were diluted with 180 μL of 45% ACN/H2O (working solution concentration: […], 40.5% ACN, 10% DMSO) • Working solution 2: 20 μL of control intermediate solution (1 mM) were diluted with 180 μL of 45% ACN/H2O (working solution concentration: 100 μM, 40.5% ACN, 10% DMSO) • Species/Matrix: CD-1 Mouse Blood • No. of Individuals: n>3 Male • Anticoagulant Used: EDTA-K2
• The fresh blood was collected on the day of experiment and pre-warmed in a water bath at 37° C. • Using an Apricot automation workstation, 98 μL/well of blank blood were added to all 96-well reaction plates (Blank, T0, T10, T30, T60 and T120). • An Apricot automation workstation was used to add 2 μL/well of working solution (100 μM) to all reaction plates except Blank (T0, T10, T30, T60 and T120). • All reaction plates containing mixtures of compound and blood were incubated at 37° C. in water bath. • The reaction plates were incubated at 37° C., and timer was started. • At the end of incubation, mixed 100 μL water with 100 μL spiked blood samples, then added 800 μL of stop solution (200 ng/mL tolbutamide and 200 ng/mL labetalol in ACN) to precipitate protein. Mixed thoroughly. • Each plate was sealed and shaken for 20 minutes. • After shaking, each plate was centrifuged at 4000 rpm and 4° C. for 20 minutes. • After centrifugation, an Apricot automation workstation was used to transfer 150 μL of supernatant from each reaction plate to its corresponding bioanalysis plate. • Each bioanalysis plate was submitted to LC-MS/MS analysis.
• The % remaining of test compound after incubation in blood was calculated using following equation:
(§3) [formula] • where PAR is the peak area ratio of analyte versus internal standard (IS) • The appointed incubation time points are TO (0 min), Tn (n=0, 10, 30, 60 and 120 min)

Series [2] is described as follows: Plasma Stability Assay (human plasma). In kind it is in vitro ADME. The note with it: both sexes; pooled human plasma, heparin, final conc. 2 μM, 37° C., 0-120 min; read-out: Human Plasma Stability t1/2. As for the experimental part: This Example illustrates that exemplary compounds of the present invention is cleavage in human plasma.
as §1, §2
• Test compound intermediate solution: 10 μL of compound stock solution (10 mM in dimethyl sulfoxide (DMSO)) were diluted with 90 μL of DMSO (intermediate solution concentration: 1 mM, 100% DMSO) • Control intermediate solution: 10 μL of control stock solution (10 mM in dimethyl sulfoxide (DMSO)) were diluted with 90 μL of DMSO (intermediate solution concentration: 1 mM, 100% DMSO) • Species/Matrix: Human Plasma • No. of Individuals: 3 Male & 3 Female • Anticoagulant Used: Heparin
• The pooled frozen plasma was thawed in a water bath at 37° C. prior to experiment. Plasma was centrifuged at 4000 rpm for 5 min and the clots were removed if any. • Using an Apricot automation workstation, 98 μL/well of blank plasma were added to all 96-well reaction plates. (Blank, T0, T10, T30, T60 and T120) • An Apricot automation workstation was used to add 2 μL/well of working solution (100 μM) to all reaction plates except Blank. (T0, T10, T30, T60 and T120) • All reaction plates containing mixtures of compound and plasma were incubated at 37° C. in water bath. • The reaction plates were incubated at 37° C., and timer was started. • At the end of incubation, added 500 μL of stop solution (200 ng/mL tolbutamide and 200 ng/mL labetalol in ACN) to precipitate protein. Mixed thoroughly. • Each plate was sealed and shaken for 20 minutes. • After shaking, each plate was centrifuged at 4000 rpm and 4° C. for 20 minutes • After centrifugation, an Apricot automation workstation was used to transfer 50 μL supernatant into 100 μL HPLC water. • Each bioanalysis plate was sealed and shaken for 10 minutes prior to LC-MS/MS analysis Data Analysis • The % remaining of test compound after incubation in blood was calculated using following equation:
as §3

As to `CCOC(=O)Oc1cc(-c2ncc3c(N4C[C@@H]5C[C@H](C4)[C@H](O)C5)nc(OC[C@@]45CCCN4C[C@H](F)C5)nc3c2F)c2c(CC)c(F)ccc2c1` [Example 12, ethyl (5-ethyl-6-fluoro-4-(8-fluoro-2-(((2R,7aS)-2-fluorotetrahydro-1H-pyrrolizin-7a(5H)-yl)methoxy)-4-((1R,5R,6R)-6-hydroxy-3-azabicyclo[3.2.1]octan-3-yl)pyrido[4,3-d]pyrimidin-7-yl)naphthalen-2-yl) carbonate], the half-life at 2 μM in series [1] was under 5 min; in series [2] it was 26 min.

With `CCc1c(F)ccc2cc(OC(=O)C3CCCC3)cc(-c3ncc4c(N5C[C@@H]6C[C@H](C5)[C@H](O)C6)nc(OC[C@@]56CCCN5C[C@H](F)C6)nc4c3F)c12` [Example 17, 5-ethyl-6-fluoro-4-(8-fluoro-2-(((2R,7aS)-2-fluorotetrahydro-1H-pyrrolizin-7a(5H)-yl)methoxy)-4-((1R,5R,6R)-6-hydroxy-3-azabicyclo[3.2.1]octan-3-yl)pyrido[4,3-d]pyrimidin-7-yl)naphthalen-2-yl cyclopentanecarboxylate], in series [1], the “Mouse Whole Blood Stability t1/2” value is 1 min. In series [2], the half-life at 2 μM stood at 41 min.

`CCc1c(F)ccc2cc(OC(=O)C34CCC(C3)C4)cc(N3CCc4c(nc(OC[C@@]56CCCN5C[C@H](F)C6)nc4N4CCC[C@]5(C4)NC(=O)NC5=O)C3)c12` [Example 67, 4-(4-((R)-2,4-dioxo-1,3,7-triazaspiro[4.5]decan-7-yl)-2-(((2R,7aS)-2-fluorotetrahydro-1H-pyrrolizin-7a(5H)-yl)methoxy)-5,8-dihydropyrido[3,4-d]pyrimidin-7(6H)-yl)-5-ethyl-6-fluoronaphthalen-2-yl bicyclo[2.1.1]hexane-1-carboxylate]: in series [1], the “Mouse Whole Blood Stability t1/2” value is given as 1 min. The half-life at 2 μM in series [2] was 267 min.

As for `CCc1c(F)ccc2cc(OC(=O)OC)cc(N3CCc4c(nc(OC[C@@]56CCCN5C[C@H](F)C6)nc4N4CCC[C@]5(C4)NC(=O)NC5=O)C3)c12` [Example 30, 4-(4-((R)-2,4-dioxo-1,3,7-triazaspiro[4.5]decan-7-yl)-2-(((2R,7aS)-2-fluorotetrahydro-1H-pyrrolizin-7a(5H)-yl)methoxy)-5,8-dihydropyrido[3,4-d]pyrimidin-7(6H)-yl)-5-ethyl-6-fluoronaphthalen-2-yl methyl carbonate], the “Mouse Whole Blood Stability t1/2” value in series [1] came out at 1 min. Further, the half-life at 2 μM in series [2] was 27 min.

For `CCCCCCCC(=O)Oc1cc(N2CCc3c(nc(OC[C@@]45CCCN4C[C@H](F)C5)nc3N3CCC[C@]4(C3)NC(=O)NC4=O)C2)c2c(CC)c(F)ccc2c1` [Example 50, 4-(4-((R)-2,4-dioxo-1,3,7-triazaspiro[4.5]decan-7-yl)-2-(((2R,7aS)-2-fluorotetrahydro-1H-pyrrolizin-7a(5H)-yl)methoxy)-5,8-dihydropyrido[3,4-d]pyrimidin-7(6H)-yl)-5-ethyl-6-fluoronaphthalen-2-yl octanoate], the half-life at 2 μM in series [1] turned out to be 13 min; in series [2] it was 235 min.

As for `CCc1c(F)ccc2cc(OC(=O)OC(C)C)cc(N3CCc4c(nc(OC[C@@]56CCCN5C[C@H](F)C6)nc4N4CCC[C@]5(C4)NC(=O)NC5=O)C3)c12` [Example 40, 4-(4-((R)-2,4-dioxo-1,3,7-triazaspiro[4.5]decan-7-yl)-2-(((2R,7aS)-2-fluorotetrahydro-1H-pyrrolizin-7a(5H)-yl)methoxy)-5,8-dihydropyrido[3,4-d]pyrimidin-7(6H)-yl)-5-ethyl-6-fluoronaphthalen-2-yl isopropyl carbonate], the results for the half-life at 2 μM in series [1] and in series [2] were 2 min and 95 min, respectively.

Turning to `CCCCCCCC(=O)Oc1cc(-c2ncc3c(N4C[C@@H]5C[C@H](C4)[C@H](O)C5)nc(OC[C@@]45CCCN4C[C@H](F)C5)nc3c2F)c2c(CC)c(F)ccc2c1` [Example 24, 5-ethyl-6-fluoro-4-(8-fluoro-2-(((2R,7aS)-2-fluorotetrahydro-1H-pyrrolizin-7a(5H)-yl)methoxy)-4-((1R,5R,6R)-6-hydroxy-3-azabicyclo[3.2.1]octan-3-yl)pyrido[4,3-d]pyrimidin-7-yl)naphthalen-2-yl octanoate], in series [1], the “Mouse Whole Blood Stability t1/2” value is recorded as 1 min. In series [2], the half-life at 2 μM amounted to 65 min.

For `CCc1c(F)ccc2cc(OC(=O)N(C)C)cc(-c3ncc4c(N5C[C@@H]6C[C@H](C5)[C@H](O)C6)nc(OC[C@@]56CCCN5C[C@H](F)C6)nc4c3F)c12` [Example 6, 5-ethyl-6-fluoro-4-(8-fluoro-2-(((2R,7aS)-2-fluorotetrahydro-1H-pyrrolizin-7a(5H)-yl)methoxy)-4-((1R,5R,6R)-6-hydroxy-3-azabicyclo[3.2.1]octan-3-yl)pyrido[4,3-d]pyrimidin-7-yl)naphthalen-2-yl dimethylcarbamate], the half-life at 2 μM in series [1] and in series [2] was over 289 min each time.

Consider `CCc1c(F)ccc2cc(OC(C)=O)cc(N3CCc4c(nc(OCC56CCCN5C/C(=C\F)C6)nc4N4CCC[C@]5(C4)NC(=O)NC5=O)C3)c12` (stereo partly drawn) [Example 72, 4-(4-(CAN-2,4-dioxo-1,3,7-triazaspiro[4.5]decan-7-yl)-2-(((S,Z)-2-(fluoromethylene)tetrahydro-1H-pyrrolizin-7a(5H)-yl)methoxy)-5,8-dihydropyrido[3,4-d]pyrimidin-7(6H)-yl)-5-ethyl-6-fluoronaphthalen-2-yl acetate], for which the half-life at 2 μM in series [1] worked out at 2 min.

Take `CCc1c(F)ccc2cc(OC(=O)N(CCOC)CCOC)cc(N3CCc4c(nc(OC[C@@]56CCCN5C[C@H](F)C6)nc4N4CCC[C@]5(C4)NC(=O)NC5=O)C3)c12` [Example 65, 4-(4-((R)-2,4-dioxo-1,3,7-triazaspiro[4.5]decan-7-yl)-2-(((2R,7aS)-2-fluorotetrahydro-1H-pyrrolizin-7a(5H)-yl)methoxy)-5,8-dihydropyrido[3,4-d]pyrimidin-7(6H)-yl)-5-ethyl-6-fluoronaphthalen-2-yl bis(2-methoxyethyl)carbamate]: the half-life at 2 μM in series [2] is over 289 min.

For `CCc1c(F)ccc2cc(OC(=O)N3CCCCC3)cc(N3CCc4c(nc(OC[C@@]56CCCN5C/C(=C\F)C6)nc4N4CCC[C@]5(C4)NC(=O)NC5=O)C3)c12` [Example 73, 4-(4-(CAN-2,4-dioxo-1,3,7-triazaspiro[4.5]decan-7-yl)-2-(((S,Z)-2-(fluoromethylene)tetrahydro-1H-pyrrolizin-7a(5H)-yl)methoxy)-5,8-dihydropyrido[3,4-d]pyrimidin-7(6H)-yl)-5-ethyl-6-fluoronaphthalen-2-yl piperidine-1-carboxylate], the half-life at 2 μM in series [1] was 147 min.

Consider `CCc1c(F)ccc2cc(OC(=O)C(C)C)cc(N3CCc4c(nc(OCC56CCCN5C/C(=C\F)C6)nc4N4CCC[C@]5(C4)NC(=O)NC5=O)C3)c12` (stereo partly drawn) [Example 76, 4-(4-(CAN-2,4-dioxo-1,3,7-triazaspiro[4.5]decan-7-yl)-2-(((S,Z)-2-(fluoromethylene)tetrahydro-1H-pyrrolizin-7a(5H)-yl)methoxy)-5,8-dihydropyrido[3,4-d]pyrimidin-7(6H)-yl)-5-ethyl-6-fluoronaphthalen-2-yl isobutyrate], for which, in series [1], the half-life at 2 μM was determined as 4 min.
